Holding throughout (format): functional
Assay [1] deals with Burkholderia cepacia. As to the kind of experiment: Antimicrobial susceptibility of Burkholderia cepacia complex isolated from cystic fibrosis patient assessed as percent susceptible isolates.
For assay [2], the system named is Burkholderia cepacia. As to the kind of experiment: Antimicrobial activity against Burkholderia cepacia complex isolated from cystic fibrosis patient by broth microdilution assay. (In broth dilution the organism is exposed to a series of concentrations in liquid medium.)
In assay [3] the test system is Burkholderia cepacia. As to the kind of experiment: Antimicrobial susceptibility of Burkholderia cepacia complex isolated from cystic fibrosis patient assessed as percent resistant isolates.

Values after ≈ are worked out from the molar mass of the structure shown.

As a reminder, the MIC50 is an inhibitory concentration at the 50% level, which refers to growth in some studies and to a panel of isolates in others. The low end stands for higher susceptibility, the high end for lower susceptibility. Broadly, the MIC90 is the lowest concentration that inhibits either 90% of growth or 90% of the strains tested, depending on the study. Lower therefore signals greater potency.

Take `CO/N=C(\C(=O)N[C@@H]1C(=O)N2C(C(=O)[O-])=C(C[N+]3(C)CCCC3)CS[C@H]12)c1csc(N)n1` [CEFEPIME]: the Activity in the assay on Burkholderia cepacia [1] was determined as 8%.
`C[C@@H](O)[C@H]1C(=O)N2C(C(=O)O)=C(S[C@@H]3CN[C@H](C(=O)N(C)C)C3)[C@H](C)[C@H]12` [MEROPENEM]: in the assay with Burkholderia cepacia [2], the MIC50 worked out at 8 µg/mL (≈ 20.9 µM). In the assay with Burkholderia cepacia [2], this compound displayed an MIC90 of 32 µg/mL (≈ 83.4 µM). The Activity with Burkholderia cepacia [1] is 26%; in the assay on Burkholderia cepacia [3], 48%.
In the same order, the values of `CN(C)c1ccc(O)c2c1C[C@H]1C[C@H]3[C@H](N(C)C)C(O)=C(C(N)=O)C(=O)[C@@]3(O)C(O)=C1C2=O` [MINOCYCLINE] are 8 µg/mL (≈ 17.5 µM), 32 µg/mL (≈ 69.9 µM), 38% and 37%.
`CO[C@H]1/C=C/O[C@@]2(C)Oc3c(C)c(O)c4c(O)c(c(/C=N/N5CCN(C)CC5)c(O)c4c3C2=O)NC(=O)/C(C)=C\C=C\[C@H](C)[C@H](O)[C@@H](C)[C@@H](O)[C@@H](C)[C@H](OC(C)=O)[C@@H]1C` [RIFAMPIN]: the Activity in the assay on Burkholderia cepacia [1] was 1%.
Regarding `O=C(N[C@H](CO)[C@H](O)c1ccc([N+](=O)[O-])cc1)C(Cl)Cl` [CHLORAMPHENICOL], in the assay with Burkholderia cepacia [2], the MIC50 turned out to be 64 µg/mL (≈ 198 µM) and the MIC90 was greater than 64 µg/mL. In addition, the Activity in the assay on Burkholderia cepacia [1] is on record as 5%. The Activity in the assay on Burkholderia cepacia [3] is 85%.
Take `CCN1CCN(C(=O)N[C@@H](C(=O)N[C@@H]2C(=O)N3[C@@H]2SC(C)(C)[C@@H]3C(=O)O)c2ccccc2)C(=O)C1=O` [PIPERACILLIN]: in the assay with Burkholderia cepacia [2], the MIC50 came to 256 µg/mL (≈ 495 µM) and the MIC90 was greater than 256 µg/mL. In the assay with Burkholderia cepacia [1], the Activity was 11%. Besides, the Activity with Burkholderia cepacia [3] was 80%.
On to `NCC[C@H](O)C(=O)N[C@@H]1C[C@H](N)[C@@H](O[C@H]2O[C@H](CN)[C@@H](O)[C@H](O)[C@H]2O)[C@H](O)[C@H]1O[C@H]1O[C@H](CO)[C@@H](O)[C@H](N)[C@H]1O` [AMIKACIN], for which, in the assay with Burkholderia cepacia [1], the Activity is on record as 4%.
Compound `CC(C)(O/N=C(\C(=O)N[C@@H]1C(=O)N2C(C(=O)[O-])=C(C[n+]3ccccc3)CS[C@H]12)c1csc(N)n1)C(=O)O` [CEFTAZIDIME] registered an MIC50 with Burkholderia cepacia [2] of 32 µg/mL (≈ 58.5 µM). The same compound returned an MIC90 in the assay on Burkholderia cepacia [2] of 128 µg/mL (≈ 234 µM). Also, the Activity with Burkholderia cepacia [1] worked out at 23%; in the assay with Burkholderia cepacia [3], 65%.
`CC1(C)S[C@@H]2[C@H](NC(=O)[C@H](C(=O)O)c3ccsc3)C(=O)N2[C@H]1C(=O)O` [TICARCILLIN]: in the assay with Burkholderia cepacia [1], the Activity is recorded as 2%.
With `C[C@H]1[C@H](NC(=O)/C(=N\OC(C)(C)C(=O)O)c2csc(N)n2)C(=O)N1S(=O)(=O)O` [AZTREONAM], in the assay with Burkholderia cepacia [1], the Activity came to 2%.
On the same count and under the same terms, the result for `C[C@@H](O)[C@H]1C(=O)N2C(C(=O)O)=C(SCCNC=N)C[C@H]12` [IMIPENEM ANHYDROUS] reads 7%; that for `O=C(O)c1cn(C2CC2)c2cc(N3CCNCC3)c(F)cc2c1=O` [CIPROFLOXACIN], 5%.
Turning to `C[C@H]1c2cccc(O)c2C(=O)C2=C(O)[C@]3(O)C(=O)C(C(N)=O)=C(O)[C@@H](N(C)C)[C@@H]3[C@@H](O)[C@@H]21.O` [DOXYCYCLINE], the MIC50 against Burkholderia cepacia [2] was 16 µg/mL. The same compound yielded an MIC90 in the assay with Burkholderia cepacia [2] greater than 32 µg/mL. Moreover, the Activity in the assay with Burkholderia cepacia [1] is given as 22%; in the assay on Burkholderia cepacia [3], 61%.

Values taken from ChEMBL document CHEMBL1142070, “Antimicrobial susceptibility and synergy studies of Burkholderia cepacia complex isolated from patients with cystic fibrosis” (2007).
